Laboratory results reported in patent publication US12195493B2, “Reversibly blocked nucleoside analogues and their use” (MGI Tech Co., Ltd., priority 2016, dated 2025).
Entries after “also recorded” stand apart in the source; their conditions may differ. Values belong to the compound of their own block, whether it stands above or below them.

Key:
[1] = 3′-O-Cyanoethyl cleavage in solution or on Biochips; conditions: added reagent in cleavage buffer, FIGS. 2 and 3
polymerase = test: Polymerase incorporation in sequencing by synthesis on nanoball arrays (FIG. 1); type: biochemical; conditions: compared with unlabeled (cold) control 3′-O-azidomethyl-dTTP
Experimental: (§1) Allenyl-dTTP and cyanoethenyl-dTTP were incubated at room temperature for 24 hours, or 65° C. for 2 hours. Fresh mixes were also made the day of the experiment. Allenyl-dTTP or cyanoethenyl-dTTP were mixed with unlabeled AGC (AGC-Cold) and used as both the hot (labeled) and cold (unlabeled) chase. Nanoball arrays were imaged to obtain a control image. Then, the array was incubated with labeled mixes to check for incorporation on unblocked ends. […] Moreover, both allenyl-dTTP and cyanoethenyl-dTTP are stable at room temperature for 24 hours and 65° C. for 2 hours as indicated by their ability to efficiently incorporate into polymerization product and thereby block subsequent polymerization and incorporation of the hot chase label.

[2] = Stability after incubation, read out by incorporation and blocking of hot chase label; type: physicochemical
Experimental: as §1

[3] = Monitoring cleavage of 3′-O reversible blocker by LC-MS (Example 2); type: physicochemical
Experimental: Cleavage reactions were performed using 5 mg of compound 8 (3′-O-cyanoethyenyl-thymidine) in 0.25 mL of acetonitrile and 0.25 mL of buffer. Cleavage was monitored by LC-MS and the results are depicted in the table below.

[4] = Cleavage studies with a variety of nucleophiles at 50° C. (Example 6); type: physicochemical
Experimental: Cleavage studies were performed according to the scheme shown below using a variety of nucleophiles. The nucleophiles, concentration, pH, and solvent are indicated for each study. The nucleoside analogue containing a 3′-O-blocking group and a linking group were treated with a nucleophile at 50° C. in solvent to form analogues having both the blocking group and linking group cleaved 13 and only the linking group cleaved 15. SM indicates starting material.
Table of Results (Experimental Conditions: T=50° C.; 1.0 mg 12/mL solvent).

Structure (SMILES): F [F^−]
effect on cleavage efficiency [1]: improved effect

Structure (SMILES): C=C=CO[C@H]1C[C@H](n2cc(C)c(=O)[nH]c2=O)O[C@@H]1COP(=O)(O)OP(=O)(O)OP(=O)(O)O [allenyl-dTTP, 3′-O-allenyl-thymidine triphosphate]
effectiveness as polymerase substrate for sequencing by synthesis (polymerase): as effective a polymerase substrate for sequencing by synthesis as the unlabeled control 3′-O-azidomethyl-dTTP; also recorded: as effective polymerase substrates for sequencing as the cold control, 3′-azidomethyl-dTTP
stability ([2]; 65° C. for 2 hours): stable
stability ([2]; room temperature for 24 hours): stable

Structure (SMILES): N#C/C=C/O[C@H]1C[C@H](n2cc(C#CCNC(=O)C(F)(F)F)c(=O)[nH]c2=O)O[C@@H]1CO [compound 12]
amount of the product obtained (SM = starting material) ([4]; Entry 22, Morpholine 1.0 M, pH 9.0, Water + 10% MeCN, t = 1 h): 25% SM + 40% of (15) + 35% of unidentified species
amount of the product obtained (SM = starting material) ([4]; Entry 22, Morpholine 1.0 M, pH 9.0, Water + 10% MeCN, t = 18 h): No SM 40% of (15) + 60% of unidentified species
amount of the product obtained (SM = starting material) ([4]; Entry 24, Cleland's reagent (dithiothreitol) 1.0 M, pH 9.0, Water + 10% MeCN, t = 1 h): 5% SM + 95% of unidentified species
amount of the product obtained (SM = starting material) ([4]; Entry 24, Cleland's reagent (dithiothreitol) 1.0 M, pH 9.0, Water + 10% MeCN, t = 18 h): No SM + unidentified species
amount of the product obtained (SM = starting material) ([4]; Entry 25, 4-Methoxy-N-methylaniline 1.0 M, pH 8.3, Water/MeCN (1:2), t = 1 h): 95% SM + 5% of unidentified species
amount of the product obtained (SM = starting material) ([4]; Entry 25, 4-Methoxy-N-methylaniline 1.0 M, pH 8.3, Water/MeCN (1:2), t = 18 h): 95% SM + 5% of unidentified species
amount of the product obtained (SM = starting material) ([4]; Entry 26, N,N′-Dimethylene diamine 1.0 M, pH 9.0, Water + 10% MeCN, t = 1 h): 5% SM + 20% of (15) + 75% of unidentified species
amount of the product obtained (SM = starting material) ([4]; Entry 26, N,N′-Dimethylene diamine 1.0 M, pH 9.0, Water + 10% MeCN, t = 18 h): No SM + 20% of (15) + 80% of unidentified species
amount of the product obtained (SM = starting material) ([4]; Entry 27, N-Methylhydroxyl amine hydrochloride 1.0 M, pH 9.0, Water + 10% MeCN, t = 1 h): 16% Product (13) + 10% of (15) + 74% of unidentified species
amount of the product obtained (SM = starting material) ([4]; Entry 27, N-Methylhydroxyl amine hydrochloride 1.0 M, pH 9.0, Water + 10% MeCN, t = 18 h): 10% of (15) + 90% of unidentified species
amount of the product obtained (SM = starting material) ([4]; Entry 28, N,N′-dimethyl-cis-cyclohexane-1,2-diamine 1.0 M, pH 9.0, Water/MeCN (2:1), t = 1 h): 60% SM + 35% of (15) + 5% of unidentified species
amount of the product obtained (SM = starting material) ([4]; Entry 28, N,N′-dimethyl-cis-cyclohexane-1,2-diamine 1.0 M, pH 9.0, Water/MeCN (2:1), t = 18 h): 30% SM + 50% of (15) + 20% of unidentified species

Structure (SMILES): Cc1cn([C@H]2C[C@H](OC=CC#N)[C@@H](COP(=O)(O)OP(=O)(O)OP(=O)(O)O)O2)c(=O)[nH]c1=O [cyanoethenyl-dTTP, 3′-O-cyanoethenyl-thymidine triphosphate]
effectiveness as polymerase substrate for sequencing by synthesis (polymerase): as effective a polymerase substrate for sequencing by synthesis as the unlabeled control 3′-O-azidomethyl-dTTP
effectiveness as polymerase substrate for sequencing by synthesis (polymerase; listed as cyanoethyl-dTTP): as effective polymerase substrates for sequencing as the cold control, 3′-azidomethyl-dTTP
stability ([2]; 65° C. for 2 hours): stable
stability ([2]; room temperature for 24 hours): stable

Results, then the compound that gave them:

effect on cleavage efficiency [1]: improved effect
Structure (SMILES): O=P([O-])([O-])OP(=O)([O-])[O-].[K+].[K+].[K+].[K+] [K4PPi]

time to complete cleavage ([3]; 10 equivalents of dimethylamine in acetonitrile/0.1 M TEAB): 20 to 30 min
time to complete cleavage ([3]; 40 equivalents of dimethylamine in acetonitrile/0.1 M TEAB): ≤ 10 min
time to complete cleavage ([3]; 40 equivalents of dimethylamine in acetonitrile/0.5 M phosphate buffer): 10 to 20 min
time to complete cleavage ([3]; 40 equivalents of dimethylamine in acetonitrile/1 M Tris buffer): ≤ 10 min
Structure (SMILES): Cc1cn([C@H]2C[C@H](OC=CC#N)[C@@H](CO)O2)c(=O)[nH]c1=O [compound 8, 3′-O-cyanoethenyl-thymidine]
